In patent publication EP2100593B1, “Ternary mixtures with increased collagen synthesis” (Symrise AG, priority 2008, dated 2009):
Values joined by “and” are separate entries in the source; they are usually repeats but may differ in a detail not shown here. Identical values can stand only once.

System: Normal Humane Dermalen Fibroblasten (NHDF)
Assay: Collagen synthesis stimulation in aged NHDF monolayer culture, Sirius Red staining (OD 540 nm)
Type: cell-based, Human
Conditions: 48 h incubation
Description: Verantwortlich für die Collagensynthese in der Dermis-Schicht der Haut sind Fibroblasten. Als Testsystem werden Normal Humane Dermalen Fibroblasten (NHDF) in einer so genannten Monolayer-Kultur in 96-Well-MTPs kultiviert, über einen definierten Zeitraum mit Testsubstanzen inkubiert und anschließend die Collagenzunahme […] über eine Färbemethode bestimmt.
Das Assay-Prinzip basiert auf der histologischen, spezifischen Anfärbung von löslichem Collagen (vorwiegend Collagen Typ I und III) mit Hilfe des Farbstoffes Sirius Red (Direct Red 80). Sirius Red ist ein anionischer Farbstoff an dessen Seitenketten Sulphonsäuregruppen angelagert sind. Diese Sulphonsäuregruppen reagieren mit den Seitenkettengruppen der im Collagen vorwiegend vorkommenden Aminosäuren (Prolin, Hydroxyprolin, Lysin und Hydroxylysin), wobei eine intakte Collagenstruktur gegeben sein muss. [drawing 1]
Als Vorlage für das Assay-Design dient die bei B.J.Walsh et al., Analytical Biochemistry 203, 187-190 (1992) beschriebene Vorgehensweise zur quantitativen Bestimmung von Collagen im 96-Well Maßstab.
Die Collagensynthese steigernde Wirkung der Testsubstanzen wird an in vitro gealterten (>8. Passage) NHDF in 96-Well Mikrotiterplatten (2*10^4 Zellen pro Well) getestet. Für jedes Prüfmuster muss zuvor ein geeignetes Lösungsmittel ermittelt werden, in dem eine Stocklösung des Prüfmusters angesetzt wird. Die Inkubationslösungen der Testsubstanzen werden anschließend in mit 0,2% BSA supplementiertem DMEM hergestellt. Mögliche Lösungsmittel sollten in allen Verdünnung der Inkubationslösung max. 0,2 %ig vorliegen. Die maximale Einsatzkonzentration der Testsubstanzen resultiert aus den in der Zytotoxizitäts-Untersuchung (Resazurin-Assay an 3T3 Maus Fibroblasten) gewonnen IC20-Werten und ist auf 0,1*IC20 festgelegt.
Nach einer 24h-igen Adaptionsphase der NHDF werden die Zellen für 48 h mit den Inkubationslösungen und entsprechenden Kontroll-Lösungen (Lösungsmittel und Blank) inkubiert (37°C, 5% CO2). […]

[1] = Tabelle 2, Einsatzkonzentration 1.020 mg/ml

**Q.** With `O=C1O[C@H]([C@@H](O)CO)C(O)=C1OP(=O)(O)O` [Magnesium Ascorbylphosphat (Bio172), Magnesium Ascorbylphosphat] as the compound, how does the “Collagensynthese Steigerung [%], bezogen auf unbehandelte Kontrolle” value (from here on “Collagensynthese Steigerung [%]”) (Tabelle 1, Einsatzkonzentration 0.362 mg/ml) read?
**A.** 66.97% and 67.44%

**Q.** `O=C1O[C@H]([C@@H](O)CO)C([O-])=C1OP(=O)([O-])[O-].O=C1O[C@H]([C@@H](O)CO)C([O-])=C1OP(=O)([O-])[O-].[Mg+2].[Mg+2].[Mg+2]` [Magnesium Ascorbylphosphat (Bio1300/1), Magnesium Ascorbylphosphat] was tested. Which “Collagensynthese Steigerung [%]” value [1] did it give?
**A.** 141.13%

**Q.** How did the “Collagensynthese Steigerung [%]” value [1] turn out when `O=C1O[C@H]([C@@H](O)CO)C([O-])=C1OP(=O)([O-])[O-].[Na+].[Na+].[Na+]` [Natrium Ascorbylphosphat (Bio1586), Natrium Ascorbylphosphat] was run?
**A.** 144.57%
